Experimental data from ChEMBL document CHEMBL1150155, “Purealidin S and purpuramine J, bromotyrosine alkaloids from the Fijian marine sponge Druinella sp” (2002).
Values after ≈ are worked out from the molar mass of the structure shown.

How the values were obtained:
A2780 = experiment: Cytotoxicity against human A2780 cells; assay type: functional; conditions: read-out: ID50 (the source's name)
K562 = experiment: Cytotoxicity against human K562 cells; assay type: functional; conditions: read-out: ID50 (the source's name)

Structure (SMILES)	IC50 (A2780)	IC50 (K562)
CNCCCOc1c(Br)cc(CCNC(=O)C2=NO[C@]3(C=C(Br)C(OC)=C(Br)[C@@H]3O)C2)cc1Br	7.44 µg/mL (≈ 10.2 µM)	6.02 µg/mL (≈ 8.23 µM)
COC1=C(Br)[C@@H](O)[C@]2(C=C1Br)CC(C(=O)NCCc1cnc[nH]1)=NO2 [AEROPHOBIN 1]	21.5 µg/mL (≈ 45.2 µM)	24.1 µg/mL (≈ 50.6 µM)
COC1=C(Br)[C@H](O)[C@@]2(C=C1Br)CC(C(=O)NCCCc1cnc(N)[nH]1)=NO2 [AEROPHOBIN 2]	> 10 µg/mL	6.91 µg/mL (≈ 13.7 µM)
COc1ccc(C/C(=N/O)C(=O)NCCc2cc(Br)c(OCCCN(C)C)c(Br)c2)cc1Br [APLYSAMINE 2]	2.83 µg/mL (≈ 4.35 µM)	1.37 µg/mL (≈ 2.11 µM)
COC1=C(Br)[C@@H](O)[C@]2(C=C1Br)CC(C(=O)NCCCOc1c(Br)cc(CCN)cc1Br)=NO2 [ARAPLYSILLIN 1]	18.6 µg/mL (≈ 25.9 µM)	27.9 µg/mL (≈ 39 µM)
COC1=C(Br)[C@H](O)[C@@]2(C=C1Br)CC(C(=O)NCCCOc1c(Br)cc(CCNC(=O)CCCCCCCCCCCC(C)C)cc1Br)=NO2 [ARAPLYSILLIN 2]	14.8 µg/mL (≈ 15.7 µM)	42.7 µg/mL (≈ 45.4 µM)
COC1=C(Br)[C@@H](O)[C@]2(C=C1Br)CC(C(=O)NCCc1cnc(N)[nH]1)=NO2 [PUREALIDIN J]	> 10 µg/mL	> 10 µg/mL
CNCCCOc1c(Br)cc(CCNC(=O)/C(Cc2ccc(OC)c(Br)c2)=N/O)cc1Br [PURPUREAMINE I]	1.7 µg/mL (≈ 2.67 µM)	1.24 µg/mL (≈ 1.95 µM)
COc1ccc(C/C(=N\O)C(=O)NCCc2cc(Br)c(OCCC[N+](C)(C)[O-])c(Br)c2)cc1Br [PURPUREAMINE J]	6.77 µg/mL (≈ 10.2 µM)	5.97 µg/mL (≈ 8.96 µM)
